Paper PMC7822030, “Hybrid Inhibitors of DNA Gyrase A and B: Design, Synthesis and Evaluation” (Pharmaceutics, 2020)
Like-named read-outs stand apart in the source and are kept apart here.

Tests used:
E. coli topoisomerase IV = target: T1, E. coli topoisomerase IV (Escherichia coli, UniProt P0AFI2+P20083); test: E. coli topoisomerase IV relaxation assay; format: biochemical; details: for Inhibition of topoisomerase IV (in words): relaxation assay
T1 construct: purchased Inspiralis, Norwich, UK
Procedure: (§1) The assay for determination of the IC50 values was performed according to previously reported procedures.
(§2) Briefly, inhibitory activities were determined using supercoiling (for DNA gyrase) and relaxation (for topoisomerase IV) assay kits (Inspiralis, Norwich, UK) on streptavidin-coated 96-well microtiter plates from Thermo Scientific Pierce (Thermo Fisher Scientific, Waltham, MA, USA). First, the plates were rehydrated with Wash Buffer and the biotinylated oligonucleotide TFO1 was then immobilized. After washing off the unbound oligonucleotide with Wash Buffer, the enzyme assay was performed. Into each well was added 24 µL of mixture containing 6 µL of Assay Buffer (containing ATP), 0.75 µL of relaxed (for E. coli DNA gyrase supercoiling assay) or supercoiled (for E. coli topoisomerase IV relaxation assay) pNO1 plasmid and 17.25 µL of water. Additionally, 3 µL of a solution of the inhibitor in 10% DMSO containing 0.008% Tween 20 and 3 µL of enzyme (1.5 U) in Dilution Buffer were also added to the wells. […] The TF buffer was added to terminate the enzymatic reaction and after additional incubation for 30 min at room temperature, which allowed for triplex formation (biotin–oligonucleotide–plasmid), the unbound plasmid was washed off using TF buffer. Promega Diamond dye in T10 buffer was then added. […] Here, the compounds were diluted using 2-fold serial dilution steps of the given compound. GraphPad Prism 6.0 software was used to calculate the IC50 values, which were determined in at least two independent measurements, and their means are given as the final result. […] Dose-response curves can be found in Supplementary Materials.

A. baumannii ATCC 17978 = test: MIC broth microdilution, A. baumannii; format: cell-based; details: Acinetobacter baumannii, ATCC17978, read-out: MIC A. baumannii ATCC #
Source text: (§3) E. coli MG1655 originated from the laboratory collection of Dr. Csaba Pál. […] E. coli K-12 BW25113 single-gene knockout mutant lines ΔdapF, ΔmrcB, ΔsurA, ΔacrB and ΔtolC originated form the Keio collection copy owned by the laboratory of Dr. Csaba Pál.
(§4) Cation-adjusted Mueller Hinton II broth (MHBII) was used for growth of the bacteria under standard laboratory conditions, for antimicrobial susceptibility tests, and for selection of resistant variants. To prepare the MHBII broth, 22 g MHBII powder (containing 3 g beef extract, 17.5 g acid hydrolysate of casein, 1.5 g starch; Becton, Dickinson and Co., Franklin Lakes, NJ, USA) was dissolved in 1 L water. MHBII agar was prepared by addition of 14 g agar (Bacto; Molar Chemicals, Halásztelek, Hungary) to 1 L broth.
(§5) Minimum inhibitory concentrations (MICs) were determined using a standard serial broth microdilution technique, according to the Clinical and Laboratory Standards Institute guidelines. […] For Enterococcus sp., the cells were plated in BHI agar plates, and BHI broth was used to determine the MICs. […] Following the dilutions, each well was seeded with 5 × 10^4 bacterial cells. Each measurement was performed in three parallel replicates, and to avoid possible edge effects in the microwell plates, the outside rows (A, H) were filled with sterile medium. Following the inoculations, the plates were covered with the lids and wrapped in polyethylene plastic bags, to minimize evaporation but to allow O2 transfer. […] After incubation, the OD600 of each well was measured using a microplate reader (Synergy 2; Biotek, Winooski, VT, USA).

P. aeruginosa ATCC 27863 = test: MIC broth microdilution, P. aeruginosa; format: cell-based; details: Pseudomonas aeruginosa
Source text: as §3, §4, §5

K. pneumoniae ATCC 10031 = test: MIC broth microdilution, K. pneumoniae; format: cell-based; details: Klebsiella pneumoniae, ATCC10031, read-out: MIC K. pneumoniae ATCC #
Source text: as §3, §4, §5

[1] = system: E. cloacae spp. cloacae ATCC 13047; test: MIC broth microdilution, E. cloacae; format: cell-based, Enterobacter cloacae; details: for MIC: Enterobacter cloacae, ATCC13047, read-out: MIC E. cloacae spp. cloacae ATCC #
E. coli ATCC 25922 = test: MIC broth microdilution, E. coli ATCC 25922; format: cell-based; details: Escherichia coli, ATCC25922, read-out: MIC E. coli ATCC #
Source text: as §3, §4, §5

E. coli DNA gyrase = target: T2, E. coli DNA gyrase (Escherichia coli, UniProt P0AES4+P0AES6); test: E. coli DNA gyrase supercoiling assay; format: biochemical
T2 construct: purchased Inspiralis, Norwich, UK
Procedure: as §1, §2

E. coli BW25113 WT = test: MIC, E. coli BW25113 wild-type; format: cell-based; details: Escherichia coli, BW25113, read-out: Minimum Inhibitory Concentration E. coli BW# WT
Source text: as §3, §4, §5

E. coli BW25113 ΔacrB = format: cell-based, Escherichia coli
Source text: as §3, §4, §5

E. coli BW25113 ΔdapF = format: cell-based, Escherichia coli
Source text: as §3, §4, §5

E. coli BW25113 ΔmrcB = format: cell-based, Escherichia coli
Source text: as §3, §4, §5

E. coli BW25113 ΔsurA = format: cell-based, Escherichia coli
Source text: as §3, §4, §5

E. coli BW25113 ΔtolC = format: cell-based, Escherichia coli; details: for MIC change, ΔtolC mutant versus wild-type E. coli BW25113: improvement of MIC in impaired efflux pump mutant
Source text: as §3, §4, §5

E. coli MG1655 WT = test: MIC, E. coli MG1655 wild-type with PAβN; format: cell-based, Escherichia coli; details: for MIC: Escherichia coli, MG1655, read-out: Minimum Inhibitory Concentration E. coli MG# WT, 50 µg/mL PAβN, molar conversion in parentheses; for Minimum Inhibitory Concentration E. coli MG1655 WT: in the presence of 50 µg/mL PAβN
Source text: as §3, §4
as §5, with “USA). […]” for “USA).”

[2] = system: E. coli MG1655 GyrA S83L, D87N ParC S80I, E84G; test: microbe, parasite or virus in culture; format: cell-based, Escherichia coli; details: for MIC: Escherichia coli, MG1655, read-out: Minimum Inhibitory Concentration E. coli MG# GyrA S83L, D87N ParC S80I, E84G; for Minimum Inhibitory Concentration E. coli MG1655 GyrA S83L, D87N ParC S80I, E84G: in the presence of 50 µg/mL PAβN
Source text: as §3, §4, §5
(§6) These mutated amino acids are the most common sites for target-based resistance in E. coli.

[3] = system: E. coli MG1655 GyrB R136C; test: microbe, parasite or virus in culture; format: cell-based, Escherichia coli; details: for MIC: Escherichia coli, MG1655, read-out: Minimum Inhibitory Concentration E. coli MG# GyrB R#C; for Minimum Inhibitory Concentration E. coli MG1655 GyrB R136C: in the presence of 50 µg/mL PAβN
Source text: as §3, §4, §5, §6

[4] = molar conversion in parentheses
[5] = ATCC27863, 18 h, read-out: MIC P. aeruginosa ATCC #
[6] = ATCC27863, read-out: MIC P. aeruginosa ATCC #, molar conversion in parentheses, read-out: MIC P. aeruginosa ATCC 27863

Compound	IC50 (E. coli topoisomerase IV) [nM]	MIC (A. baumannii ATCC 17978; broth microdilution, 18 h) [µg/mL]	MIC (A. baumannii ATCC 17978; [4]) [µM]	MIC (P. aeruginosa ATCC 27863; [5]) [µg/mL]	MIC (P. aeruginosa ATCC 27863; [6]) [µM]	MIC (K. pneumoniae ATCC 10031; broth microdilution, 18 h) [µg/mL]	MIC (K. pneumoniae ATCC 10031; [4]) [µM]	Antibacterial activity against E. cloacae (in words) [1]	MIC ([1]; broth microdilution, 18 h) [µg/mL]	MIC [1, 4] [µM]	MIC (E. coli ATCC 25922; broth microdilution, 18 h) [µg/mL]	MIC (E. coli ATCC 25922; [4]) [µM]	IC50 (E. coli DNA gyrase) [nM]	Inhibition of topoisomerase IV (in words) (E. coli topoisomerase IV)	MIC (E. coli BW25113 WT; [4]) [µM]	MIC (E. coli BW25113 WT; wild-type) [µg/mL]	Minimum Inhibitory Concentration E. coli BW25113 ΔacrB (E. coli BW25113 ΔacrB; efflux pump mutant) [µg/mL]	Minimum Inhibitory Concentration E. coli BW25113 ΔacrB (E. coli BW25113 ΔacrB; [4])	Minimum Inhibitory Concentration E. coli BW25113 ΔdapF (E. coli BW25113 ΔdapF; impaired cell-wall mutant) [µg/mL]	Minimum Inhibitory Concentration E. coli BW25113 ΔdapF (E. coli BW25113 ΔdapF; [4])	other results
Cc1[nH]c(C(=O)Nc2nc3ccc(C(=O)O)cc3s2)c(Cl)c1Cl [Compound 1a, 2-(3,4-dichloro-5-methyl-1H-pyrrole-2-carboxamido)benzo[d]thiazole-6-carboxylic acid, reference compound]	500 ± 280	4	10.8	8	21.6	1	2.7	inactive	> 64	> 173	4	10.8	–	–	–	–	–	–	–	–	–
Cc1[nH]c(C(=O)Nc2nc3c(OCc4ccccc4)cc(C(=O)O)cc3s2)c(Cl)c1Cl [Compound 1b, reference compound]	–	2	4.2	2	4.2	4	8.4	inactive	> 64	> 134	16	33.6	–	–	–	–	–	–	–	–	–
Cc1[nH]c(C(=O)Nc2nc3ccc(C(=O)NCC(=O)N4CCN(c5cc6c(cc5F)c(=O)c(C(=O)O)cn6C5CC5)CC4)cc3s2)c(Cl)c1Cl [Compound 7a, 1-Cyclopropyl-7-(4-((2-(3,4-dichloro-5-methyl-1H-pyrrole-2-carboxamido)benzo[d]thiazole-6-carbonyl)glycyl)piperazin-1-yl)-6-fluoro-4-oxo-1,4-dihydroquinoline-3-carboxylic acid]	2500 ± 1300	> 64	> 86.4	> 64	> 86.4	4	5.4	–	> 64	> 86.4	> 64	> 86.4	92 ± 10	low micromolar	> 86.4	> 64	>64	(>86.4 µM)	>64	(>86.4 µM)	Minimum Inhibitory Concentration E. coli BW25113 ΔmrcB (E. coli BW25113 ΔmrcB; impaired cell-wall mutant): >64 µg/mL; Minimum Inhibitory Concentration E. coli BW25113 ΔmrcB (E. coli BW25113 ΔmrcB; [4]): (>86.4 µM); Minimum Inhibitory Concentration E. coli BW25113 ΔsurA (E. coli BW25113 ΔsurA; impaired cell-wall mutant): >64 µg/mL; Minimum Inhibitory Concentration E. coli BW25113 ΔsurA (E. coli BW25113 ΔsurA; [4]): (>86.4 µM); Minimum Inhibitory Concentration E. coli BW25113 ΔtolC (E. coli BW25113 ΔtolC; efflux pump mutant): 2 µg/mL; MIC change, ΔtolC mutant versus wild-type E. coli BW25113 (E. coli BW25113 ΔtolC): above 32 fold; Minimum Inhibitory Concentration E. coli BW25113 ΔtolC (E. coli BW25113 ΔtolC; [4]): (2.70 µM); MIC (E. coli MG1655 WT): 1.35 µM; Minimum Inhibitory Concentration E. coli MG1655 WT (E. coli MG1655 WT): 1 µg/mL; MIC [2]: 0.675 µM; Minimum Inhibitory Concentration E. coli MG1655 GyrA S83L, D87N ParC S80I, E84G [2]: 0.5 µg/mL; MIC [3]: 2.7 µM; Minimum Inhibitory Concentration E. coli MG1655 GyrB R136C [3]: 2 µg/mL
Cc1[nH]c(C(=O)Nc2nc3ccc(C(=O)NCCC(=O)N4CCN(c5cc6c(cc5F)c(=O)c(C(=O)O)cn6C5CC5)CC4)cc3s2)c(Cl)c1Cl [Compound 7b, 1-Cyclopropyl-7-(4-(3-(2-(3,4-dichloro-5-methyl-1H-pyrrole-2-carboxamido)benzo[d]thiazole-6-carboxamido)propanoyl)piperazin-1-yl)-6-fluoro-4-oxo-1,4-dihydroquinoline-3-carboxylic acid]	3100	> 64	> 84.8	> 64	> 84.8	8	10.6	–	> 64	> 84.8	> 64	> 84.8	130 ± 10	low micromolar	> 84.8	> 64	>64	(>84.8 µM)	>64	(>84.8 µM)	Minimum Inhibitory Concentration E. coli BW25113 ΔmrcB (E. coli BW25113 ΔmrcB; impaired cell-wall mutant): >64 µg/mL; Minimum Inhibitory Concentration E. coli BW25113 ΔmrcB (E. coli BW25113 ΔmrcB; [4]): (>84.8 µM); Minimum Inhibitory Concentration E. coli BW25113 ΔsurA (E. coli BW25113 ΔsurA; impaired cell-wall mutant): >64 µg/mL; Minimum Inhibitory Concentration E. coli BW25113 ΔsurA (E. coli BW25113 ΔsurA; [4]): (>84.8 µM); Minimum Inhibitory Concentration E. coli BW25113 ΔtolC (E. coli BW25113 ΔtolC; efflux pump mutant): 2 µg/mL; MIC change, ΔtolC mutant versus wild-type E. coli BW25113 (E. coli BW25113 ΔtolC): above 32 fold; Minimum Inhibitory Concentration E. coli BW25113 ΔtolC (E. coli BW25113 ΔtolC; [4]): (2.65 µM); MIC (E. coli MG1655 WT): 1.32 µM; Minimum Inhibitory Concentration E. coli MG1655 WT (E. coli MG1655 WT): 1 µg/mL; MIC [2]: 1.32 µM; Minimum Inhibitory Concentration E. coli MG1655 GyrA S83L, D87N ParC S80I, E84G [2]: 1 µg/mL; MIC [3]: 1.32 µM; Minimum Inhibitory Concentration E. coli MG1655 GyrB R136C [3]: 1 µg/mL
